One data set relates to Human adenovirus 5. The data set is described as follows: Antiviral activity against human adenovirus 5 infected in HEK293 cells assessed as reduction in viral induced cytopathogenicity incubated for 5 days by Celltiter-Glo luminescent cell viability assay. The class given is functional, organism-based. The conditions noted are these: Human mastadenovirus C, HEK293, 120 h. (Damage to the host cells serves as the signal in cytopathic effect assays.)

A further data set has as its target Cathepsin B (Homo sapiens, UniProt P07858).
The target in another data set is Dipeptidyl peptidase 1 (Homo sapiens, UniProt P53634).
The next data set addresses T1, Cathepsin K (Homo sapiens, UniProt P43235).
T1 sequence (P43235 whole entry): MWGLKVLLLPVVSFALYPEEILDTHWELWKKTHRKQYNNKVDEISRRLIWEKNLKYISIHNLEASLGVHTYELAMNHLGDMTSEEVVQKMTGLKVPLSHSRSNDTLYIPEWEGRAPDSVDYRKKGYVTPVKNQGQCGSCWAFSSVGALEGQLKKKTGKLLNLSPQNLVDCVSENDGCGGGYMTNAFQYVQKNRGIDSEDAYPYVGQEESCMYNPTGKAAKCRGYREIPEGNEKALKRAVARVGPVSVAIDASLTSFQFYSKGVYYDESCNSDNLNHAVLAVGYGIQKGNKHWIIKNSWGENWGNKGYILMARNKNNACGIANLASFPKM

Another data set concerns the target Procathepsin L (Homo sapiens, UniProt P07711).
A further data set deals with Cathepsin S (Homo sapiens, UniProt P25774).
Data set [1] deals with adenain (human adenovirus serotype 8). The data set is described as follows: Inhibition of human adenovirus serotype 8 adenain protease expressed in Escherichia coli […] (DE3) using Ac-WLRGG*ARC(PT14)-NH2 as substrate by FLT assay.
In data set [2] the test system is adenain (human adenovirus serotype 5). The data set is described as follows: Inhibition of human adenovirus serotype 5 adenain protease expressed in Escherichia coli […] (DE3) using Ac-WLRGG*ARC(PT14)-NH2 as substrate by FLT assay.
Data set [3] in a line: Permeability of the compound by PAMPA. The class given is ADME. (The PAMPA barrier holds no transporters, so it reflects passive diffusion.)
Data set [4] is described as follows: Equilibrium solubility of the compound at pH 6.8. The class given is physicochemical. Particulars: buffer.

≈ marks a conversion by molar mass, not a printed value.

Sequence of Cathepsin S (P25774 whole entry): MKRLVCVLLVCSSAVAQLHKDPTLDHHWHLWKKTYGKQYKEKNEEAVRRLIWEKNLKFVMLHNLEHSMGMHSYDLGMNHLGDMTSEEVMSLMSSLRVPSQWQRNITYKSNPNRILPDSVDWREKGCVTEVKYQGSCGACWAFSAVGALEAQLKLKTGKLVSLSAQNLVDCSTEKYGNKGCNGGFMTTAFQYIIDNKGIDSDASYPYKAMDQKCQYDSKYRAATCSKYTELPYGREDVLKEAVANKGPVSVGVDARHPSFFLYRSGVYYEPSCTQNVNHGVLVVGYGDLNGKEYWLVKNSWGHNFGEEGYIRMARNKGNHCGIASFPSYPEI
Sequence of Dipeptidyl peptidase 1 (P53634 25-134 limits assumed): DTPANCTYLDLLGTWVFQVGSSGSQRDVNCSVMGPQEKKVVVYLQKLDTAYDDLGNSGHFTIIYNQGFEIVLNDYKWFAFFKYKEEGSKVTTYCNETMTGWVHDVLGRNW
Sequence of Dipeptidyl peptidase 1 (P53634 231-394 limits assumed): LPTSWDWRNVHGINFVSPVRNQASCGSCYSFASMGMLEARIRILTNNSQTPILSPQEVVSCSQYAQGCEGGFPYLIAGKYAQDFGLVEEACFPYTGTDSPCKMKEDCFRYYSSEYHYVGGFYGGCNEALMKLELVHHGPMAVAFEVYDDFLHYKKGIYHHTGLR
Sequence of Dipeptidyl peptidase 1 (P53634 395-463 limits assumed): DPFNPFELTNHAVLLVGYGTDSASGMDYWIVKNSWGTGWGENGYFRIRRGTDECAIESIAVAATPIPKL
Sequence of Procathepsin L (P07711 whole entry): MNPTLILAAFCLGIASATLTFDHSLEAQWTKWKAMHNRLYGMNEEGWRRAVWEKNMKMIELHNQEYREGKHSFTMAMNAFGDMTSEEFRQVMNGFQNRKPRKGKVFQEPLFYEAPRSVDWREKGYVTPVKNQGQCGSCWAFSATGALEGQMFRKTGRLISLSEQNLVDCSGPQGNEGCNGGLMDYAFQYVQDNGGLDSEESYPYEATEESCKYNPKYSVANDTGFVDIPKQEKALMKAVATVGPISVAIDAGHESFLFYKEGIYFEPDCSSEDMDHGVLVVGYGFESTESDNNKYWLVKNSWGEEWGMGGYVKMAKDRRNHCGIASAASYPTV
Description for Cathepsin B: Inhibition of human recombinant Cathepsin B using fluorogenic peptide substrate
Description for Cathepsin K: Inhibition of human recombinant Cathepsin K using fluorogenic peptide substrate
Description for Cathepsin S: Inhibition of human recombinant Cathepsin S using fluorogenic peptide substrate
Description for Dipeptidyl peptidase 1: Inhibition of human recombinant Cathepsin C using fluorogenic peptide substrate
Description for Procathepsin L: Inhibition of human recombinant Cathepsin L using fluorogenic peptide substrate

On to `COc1ccc(C(=O)NCc2ccnc(C#N)n2)cc1C(=O)C(C)(C)c1cc(Cl)cc(Cl)c1`, for which the EC50 in the data set with Human adenovirus 5 is over 50 µM. The IC50 against Cathepsin B worked out at 8.1 µM; against Dipeptidyl peptidase 1, 66 µM; against Cathepsin K, 9.5 µM; at Procathepsin L it was 5.6 µM; at Cathepsin S, 1 µM; in [1], 0.0006 µM. In [2], this compound had an IC50 of 0.0002 µM.
For `CN(C)CCOc1ccc(C(=O)NCc2ccnc(C#N)n2)cc1C(=O)C(C)(C)c1cc(Cl)cc(Cl)c1`, in data set [3], the logPm is -4.2. Also, the thermodynamic solubility in [4] came to 490 µM (≈ 265 µg/mL). The EC50 in the data set on Human adenovirus 5 worked out at 3.9 µM. The IC50 is 81 µM at Cathepsin B; 18 µM on Dipeptidyl peptidase 1; 19 µM against Cathepsin K; over 11 µM against Procathepsin L; 24 µM against Cathepsin S; 0.0001 µM in data set [1]. For the same compound, in [2], the 50% inhibitory concentration (IC50) was determined as 0.0001 µM.
Compound `CC[C@H](C(=O)N[C@H]1CCN(CC(=O)NC/C=C/S(C)(=O)=O)C1=O)c1cc(Cl)cc(Cl)c1` displayed a logPm in data set [3] of -5.5. For the same compound, the EC50 with Human adenovirus 5 turned out to be 8.9 µM. Moreover, the half-inhibitory concentration (IC50) against Cathepsin B was over 100 µM; against Dipeptidyl peptidase 1, over 100 µM; at Cathepsin K, over 100 µM; at Procathepsin L it was over 100 µM; against Cathepsin S, over 100 µM; in data set [1], 0.004 µM. Besides, in data set [2], the IC50 is 0.002 µM.
In turn, `COc1ccc(C(=O)NCC(=O)NCC#N)cc1C(=O)C(C)(C)c1cc(Cl)cc(Cl)c1` yielded a logPm in data set [3] of -5. Also, in data set [4], the thermodynamic solubility was 50 µM (≈ 23.1 µg/mL). The half-inhibitory concentration (IC50) is over 100 µM at Cathepsin B; over 100 µM against Dipeptidyl peptidase 1; over 100 µM on Cathepsin K; over 100 µM against Procathepsin L; over 100 µM on Cathepsin S; 0.04 µM in data set [1]. Further, in data set [2], the 50% inhibitory concentration (IC50) was 0.03 µM.
`CS(=O)(=O)N[C@H](C(=O)N[C@@H](Cc1ccccc1)C(=O)NCC(=O)NCC#N)c1cccc(Cl)c1` registered a logPm in [3] of -5.6. In addition, the IC50 stood at 0.04 µM in data set [1] and 0.03 µM in [2].
The compound `CN(C)CCOc1ccc(C(=O)NCC(=O)NCC#N)cc1C(=O)C(C)(C)c1cc(Cl)cc(Cl)c1` returned a logPm in data set [3] of -5.5. Moreover, the thermodynamic solubility in data set [4] is over 1000 µM. Further, the IC50 on Cathepsin B was over 100 µM; against Dipeptidyl peptidase 1 it was over 100 µM; against Cathepsin K, over 100 µM; at Procathepsin L it was 100 µM; on Cathepsin S it was over 100 µM; in data set [1], 0.01 µM. The same compound yielded an IC50 in data set [2] of 0.007 µM.
Regarding `CC(C)(C)[C@H](NC(=O)Cc1cc(Cl)cc(Cl)c1)C(=O)NCC(=O)NC/C=C/S(C)(=O)=O`, the logPm in [3] is -5.6. Besides, the EC50 in the data set with Human adenovirus 5 turned out to be 4.5 µM. Besides, the IC50 on Cathepsin B was over 100 µM; at Dipeptidyl peptidase 1, over 100 µM; against Cathepsin K, 95 µM; against Procathepsin L it was over 100 µM; against Cathepsin S it was over 100 µM; in data set [1], 0.01 µM. In [2], inhibition was half-maximal at 0.01 µM (IC50).
Consider `COc1ccc(C(=O)NCC(=O)NCC#N)cc1C(=O)Cc1cc(Cl)cc(Cl)c1`, for which the IC50 in data set [1] turned out to be 2.74 µM; in data set [2] it was 1.1 µM.
For the compound `CCN[C@H](C(=O)N[C@H](C(=O)NCC(=O)NC/C=C/S(C)(=O)=O)C(C)(C)C)c1cc(Cl)cc(Cl)c1`, in the data set on Human adenovirus 5, the EC50 was 31 µM. Further, the IC50 against Cathepsin B is over 100 µM; against Dipeptidyl peptidase 1, over 100 µM; against Cathepsin K it was 73 µM; against Procathepsin L, over 100 µM; at Cathepsin S it was over 100 µM; in data set [1], under 0.001 µM. Further, the IC50 in [2] is under 0.001 µM.
In the case of `COc1ccc(C(=O)NCC(=O)NCC#N)cc1C(=O)C(C)c1cc(Cl)cc(Cl)c1` (configuration not stated), the IC50 in data set [1] was found to be 0.95 µM; in data set [2] it was 0.31 µM.
Compound `COc1ccc(C(=O)NCC(=O)NC/C=C/S(C)(=O)=O)cc1C(=O)C(C)(C)c1cc(Cl)cc(Cl)c1` returned a logPm in data set [3] of -4.1. For the same compound, the IC50 on Cathepsin B was over 100 µM; against Dipeptidyl peptidase 1, over 100 µM; at Cathepsin K, over 100 µM; against Procathepsin L, over 100 µM; against Cathepsin S, over 100 µM; in data set [1] it was 0.001 µM. In data set [2], this compound registered an IC50 of 0.001 µM.

By EC50 is commonly meant the midpoint of the concentration-response curve. In general, IC50 refers to the concentration at which inhibition is half-maximal. A lower IC50 goes with greater potency in that assay. A word on the thermodynamic solubility: it is solubility found after equilibrating the solid with the medium.

The values above are taken from ChEMBL document CHEMBL3352786, “Structure-based design and optimization of potent inhibitors of the adenoviral protease” (Bioorg Med Chem Lett, 2015).
